# Laboratory results: patent US5672707A (priority 1991, dated 1997)
# Experiments:
# in vivo = settings: intraperitoneal injection, Table 5; for LD50: in vivo, ip, read-out: LD50 (mg/kg) by Kerber
# Experimental: (§1) Psychoneurotropic activity of the declared compounds and their influence on learning and memory were observed using unbred male (18-20 g) mice and 180-200 g) rats, held at standard conditions (room temperature 21°-22° C., 12-hours lighting schedule, food and water ad libitum).
# Acute toxicity was studied by the method of Kerber with intra peritoneal drug injection.
# [1] = target: T1, Acetylcholinesterase, enzyme from human erythrocytes (Homo sapiens, UniProt P22303); assay: Acetylcholinesterase inhibition, spectrophotometric technique of Ellman; format: biochemical; settings: Acetylcholinesterase inhibition IC50 (M), enzyme from human erythrocytes; Table 5
# T1 construct: on the enzyme from human erythrocytes; from tissue; host or cells: human erythrocytes
# Experimental: Acetylcholinesterase inhibition under the action of preparations was assessed by the spectrophotometric technique of Ellman on the enzyme from human erythrocytes.
# rats = assay: Passive avoidance test in normal rats, 50% acquisition; format: in vivo; settings: for change in vivo at 0.1 mg/kg: Rattus norvegicus, ip, 20 min, read-out: Increase of the number of correct trails (% to control). Passive avoidance test (rats); for change in vivo at 0.1 mg/kg / Increase of the number of correct trails (% to control). Passive avoidance test (rats): rats, 0.1 mg/kg i.p. 20 min before training, piracetam 250 mg/kg 60 min before training
# Experimental: as §1
# The influence of drugs on reflex conditioning in rats was studied by the passive avoidance test in conditions of 50% acquisition. The effect of the compound was estimated by the increase of the relative number of learned animals with respect to that of control group. […] The other reference drug--noothropic agent piracetam--was given in the dose 250 mg/kg 60 min before training. Amnestic syndrome was stimulated by 20 days application of Sc at the daily dose of 1 mg/kg intraperitoneally. […] The passive avoidance test was performed within 24 hours after the last application of test preparations.
# mice [2] = assay: Psychotropic activity test: motor activity; format: in vivo; settings: intraperitoneally, dose 1/20 of LD
# mice [3] = assay: Psychotropic activity test: arecoline induced hyperkynesis; format: in vivo; settings: intraperitoneally, dose 1/20 of LD
# rat adipocytes [4] = assay: Lipid composition of adipocytes after incubation with compounds; format: cell-based; settings: for FFA/TG in adipocytes / PL/CL in adipocytes / PL/TG in adipocytes: cells, Table 11; for FFAc/FFAm / PLc/PLm: distribution between cells and incubation medium, Table 13
# Experimental: (§2) Lipid regulative activity of the declared compounds--derivatives of 9-amino acridine--were evaluated in vitro[…] using rat adipocytes. Adipocytes were separated from adipose tissue of testis appendages of adult male rats. Lipid composition analysis was performed by the method of thin-layer chromatography.
# (§3) Quantitative analysis of phospholipids (PL), mono- and diacylglycerides (MDG), triacylglycerides (TG), free fatty acids (FFA), free cholesterol (FCL), and methyl esters of fatty acids (MEFA) was performed by the method of spectrophotometry.
# rat adipocytes [5] = assay: Lipid content in incubation medium after incubation of adipocytes; format: cell-based; settings: incubation medium; Table 12
# Experimental: as §2, §3
# T1 sequence (P22303-2 with tags, fused parts or gaps limits assumed): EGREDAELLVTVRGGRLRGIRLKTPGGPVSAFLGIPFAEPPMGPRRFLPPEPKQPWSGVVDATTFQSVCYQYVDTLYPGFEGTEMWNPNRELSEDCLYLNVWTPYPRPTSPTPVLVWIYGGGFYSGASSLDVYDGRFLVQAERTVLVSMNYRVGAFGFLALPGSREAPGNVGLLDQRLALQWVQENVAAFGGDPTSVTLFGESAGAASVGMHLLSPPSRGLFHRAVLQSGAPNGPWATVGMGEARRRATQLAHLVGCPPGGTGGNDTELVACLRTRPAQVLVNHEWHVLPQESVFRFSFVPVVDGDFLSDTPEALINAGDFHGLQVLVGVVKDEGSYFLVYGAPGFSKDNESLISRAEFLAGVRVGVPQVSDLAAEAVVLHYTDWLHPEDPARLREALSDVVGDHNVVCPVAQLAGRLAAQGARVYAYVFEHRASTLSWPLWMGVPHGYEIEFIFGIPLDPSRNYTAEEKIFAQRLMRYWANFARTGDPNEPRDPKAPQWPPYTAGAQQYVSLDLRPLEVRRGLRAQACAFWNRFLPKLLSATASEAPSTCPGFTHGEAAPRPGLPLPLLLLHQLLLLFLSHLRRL
Structure (SMILES),LD50 (in vivo) [mg/kg],IC50 [1] [M],change in vivo at 0.1 mg/kg (rats) [%],Motor activity increment (% to control) (mice [2]),Increase of duration of arecoline induced hyperkynesis (% to control) (mice [3]),Performance of normal rats in passive avoidance test (rats; normal rats),FFA/TG in adipocytes (rat adipocytes [4]),PL/CL in adipocytes (rat adipocytes [4]),PL/TG in adipocytes (rat adipocytes [4]),FFAc/FFAm (rat adipocytes [4]),PLc/PLm (rat adipocytes [4]),FFA/TG in incubation medium (rat adipocytes [5]),PL/CL in incubation medium (rat adipocytes [5]),PL/TG in incubation medium (rat adipocytes [5]),LD50 (mg/kg) by Kerber (in vivo) [mg/kg],Increase of the number of correct trails (% to control). Passive avoidance test (rats) (rats)
CC1(C)CC(=O)c2c(nc3ccc(Br)cc3c2N)C1 [IVd],> 500,5e-05,0,15 % to control,20 % to control,,,,,,,,,,,
Cc1ccc(C)c2c(N)c3c(nc12)CC(C)(C)CC3=O [IVf],40 ± 1.2,1.3e-05,0,0 % to control,0 % to control,statistically significantly improved performance of normal rats,,,,,,,,,,
Cc1cc(C)c2nc3c(c(N)c2c1)C(=O)CC(C)(C)C3 [IVh],> 500,3e-05,0,0 % to control,20 % to control,,,,,,,,,,,
Cc1ccc2nc3c(c(N)c2c1)C(=O)CC(C)(C)C3 [IVj],63.6 ± 8.7,3e-05,0,0 % to control,30 % to control,,,,,,,,,,,
Cc1cccc2c(N)c3c(nc12)CC(C)(C)CC3=O [IVl],617 ± 23.7,6.3e-07,0,57 % to control,0 % to control,,,,,,,,,,,
CCCCNc1c2c(nc3ccccc13)CC(C)(C)C=C2 [VIIc],33.3 ± 4.4,6e-07,25,20 % to control,15 % to control,,,,,,,,,,,
CC1(C)C=Cc2c(nc3ccccc3c2NCc2ccccc2)C1 [VIIj],,,,,,,1.00,0.83,0.86,0.93,1.08,1.07,0.89,0.81,,
CC1(C)C=Cc2c(nc3ccccc3c2NCc2ccccc2)C1 [VIIk],,,,20 % to control,20 % to control,,0.93,0.61,0.58,0.95,0.78,1.10,0.96,0.84,90.5 ± 8.,25 % to control
CC1(C)C=Cc2c(nc3ccccc3c2NCc2ccccc2)C1 [VIIl],,,,10 % to control,15 % to control,,1.00,0.75,0.78,0.96,0.97,1.00,0.91,0.77,116.7 ± 10.9,40 % to control
"CC1(C)Cc2nc3ccccc3c(NCc3ccccc3)c2C(O)C1 (stereo not shown) [VIe, 9-benzylamino-3,3-dimethyl-1,2,3,4-tetrahydroacridine-1-ol]",50 ± 8.6,1.3e-06,0,64 % to control,15 % to control,,,,,,,,,,,
CC1(C)Cc2nc3ccccc3c(NCc3ccc(Cl)cc3)c2C(O)C1 (stereo not shown) [VIg],80 ± 2.7,3e-06,0,40 % to control,36 % to control,,,,,,,,,,,
